Measurements published in patent publication US10406227B2, “Photoactivated molecules for light-induced modulation of the activity of electrically excitable cells and methods of using same” (University of Southern California, priority 2012, dated 2019).

Experiments:
[1] = test system: primary cultured mouse chromaffin cells; test: Imaging RubpyC17 in live cells (membrane luminescence); type: cell-based
Experimental: (§1) Cells were imaged at 1-3 days after plating. The glass-bottomed chambers with adherent cells were washed twice with PBS and then filled with standard extracellular solution consisting of 140 mM NaCl, 2.8 mM KCl, 10 mM HEPES, 1 mM MgCl2, 2 mM CaCl2, and 10 mM glucose, pH adjusted to 7.2-7.4 and osmolarity adjusted to 290-310 mOsm. The chamber was then mounted on an Olympus IX70 inverted microscope stage for imaging, using a Cascade 512B EMCCD camera, operated by Metamorph software. Initial imaging was done with cells in extracellular solution without RubpyC17, first under brightfield to evaluate cell health and morphology, then under widefield argon ion laser illumination at 488 nm (Coherent, Innova 90-5, Santa Clara, Calif.), to evaluate autofluorescence. Next, the extracellular solution was removed and replaced with extracellular solution containing the RubpyC17 compound (10 μM in ≤0.01% DMSO, final concentrations). Cell images were then acquired with illumination at 488 nm (collected with a long-pass red emission filter). For electrophysiological experiments, RubpyC17 compound was added to the extracellular solution (2-10 μM in ≤0.01% DMSO, final concentrations as indicated) and cells were incubated for 1.5-45 min, as indicated, then washed with extracellular solution without RubpyC17. Some chromaffin cells were also exposed continuously to 490-900 nM RubpyC17-containing extracellular solution.
(§2) Illustrated here are rat insulinoma INS cells (FIG. 1C, top), human embryonic kidney (HEK293T) cells (FIG. 1C, middle), and primary cultured mouse chromaffin cells (FIG. 1C, bottom). […] All cell types preserved morphology for at least 10 minutes. […] One embodiment of the possible light-induced electron transfer is depicted in FIG. 1D.

HEK293T cells [2] = test: Voltage-clamp membrane current during illumination; type: cell-based, human; conditions: voltage-clamp at approximately −80 mV
Experimental: To examine whether light-activated RubpyC17 can directly interact and open or block endogenous ion channels, HEK293T cells were preincubated with RubpyC17, and patch-clamped in a voltage-clamp configuration. Voltage-clamp configuration allowed the cells to be clamped at a potential where most voltage-gated ion channels are closed (approximately −80 mV). […] The current-voltage relationship (FIGS. 5C, D) as well as the steady-state voltage-dependent activation curves of RubpyC17-treated chromaffin cells in voltage-clamp mode before and during light illumination (FIG. 5E).

[3] = test system: mouse adrenal chromaffin cells; test: Perforated patch clamp action potential recording; type: cell-based
Experimental: Action potentials in chromaffin cells were monitored using perforated patch clamp electrophysiology in current-clamp mode, using an EPC10 amplifier and Pulsemaster data acquisition software (HEKA electronics). A coverslip containing mouse chromaffin cells was transferred to a recording chamber and perfused with extracellular solution. Extracellular solution consists of 140 mM NaCl, 2.8 mM KCl, 10 mM HEPES, 1 mM MgCl2, 2 mM CaCl2, 10 mM glucose, pH adjusted to 7.3, and osmolarity adjusted to 290-300 mOsm. Intracellular solution consisted of 145 mM KCl, 10 mM NaCl, 1 mM MgCl2, and 10 mM HEPES, pH adjusted to 7.3 and osmolarity adjusted to 290-300 mOsm. Perforation solution was prepared by adding 4.5 μl of 125 mg/ml stock of amphoterecin B (Sigma) in DMSO to 1.8 mls of intracellular solution, and homogenizing for 5-10 s. Perforation was achieved within 3-10 min following gigaseal formation. Series resistances were in the range of 8-22 Mohm. Light stimulation in the blue spectrum originated from a xenon lamp source with an irradiance value of 0.480 mE s^−1 m^−2 through a 470/40 nm bandpass excitation filter. The duration of illumination varied and is indicated by bars on figures.
The behavior of excitable cells (cells capable of firing action potentials) treated with RubpyC17 was next investigated. Perforated patch clamp recording was performed on mouse adrenal chromaffin cells pretreated with 450-900 nM RubpyC17 for 15-30 minutes before beginning electrophysiological recordings. […] A slow, gradual reversal, on the order of seconds after light illumination was terminated (FIG. 3A), was observed.

mouse chromaffin cells = test: Carbon fiber amperometry of light-triggered secretion; type: cell-based
Experimental: Carbon fiber electrodes were prepared using established methodology and coupled to an EPC10 amplifier. A+800 mV constant voltage was applied to the electrode relative to the Ag/AgCl bath electrode. The amperometry recordings were sampled at 4 kHz using Pulsemaster (HEKA). Extracellular composition consisted of 120 mM NaCl, 20 mM KCl, 10 mM HEPES, 1 mM MgCl2, 2 mM CaCl2, 10 mM glucose, pH adjusted to 7.2-7.4, and osmolarity adjusted to 290-300. Light stimulation in the blue spectrum originated from a xenon lamp source through a 470/40 nm bandpass excitation filter. The duration of illumination varied and is indicated by bars on figures.
Action potential firing triggers secretion of norepinephrine and epinephrine from adrenal chromaffin cells, which can be readily detected by the technique of carbon-fiber amperometry, thus serving as a surrogate to detect action potential firing. […] Out of 18 RubpyC17-loaded cells tested, 15 cells (83%) experienced increased secretion by at least 100-fold during light illumination. Unlike the changes in light-induced depolarization, light-induced changes in secretion appeared to be more transient. One possible explanation for this is that at any moment in time, there are only a small number of release-competent vesicles—the so-called readily releasable pool of vesicles—and maintained stimulation causes rapid depletion of the readily releasable pool of vesicles in the initial phase of stimulation.

HEK293T cells [4] = test: Imaging RubpyC17 in live cells (membrane luminescence); type: cell-based, human
Experimental: as §1, §2

[5] = 10 μM in bath, 488 nm excitation
[6] = 10 minutes after RubpyC17 removal

[Ru(bpy)2(bpy-C17)](PF6)2 [RubpyC17]
time cell morphology preserved ([1]; 10 μM RubpyC17): at least 10 minutes
incorporation into plasma membrane (membrane-localized luminescence) [1, 5]: rapidly and stably incorporates into mammalian cell membranes
membrane luminescence after removal from bath solution [1, 6]: still observed
light-induced changes in membrane current (HEK293T cells [2]): did not exhibit light-induced changes in membrane current
effect of light on action potential firing ([3]; 900 nM RubpyC17 pretreatment, 5 mM ascorbate): triggered action potentials or increased the rate of action potential firing
action potential firing rate, single cell, ascorbate changed for ferricyanide ([3]; 2 μM RubpyC17 for 1.5 min): light-induced increase and then light-induced decrease
effect of light on action potential firing ([3]; 100 μM ferricyanide): decreased the rate of action potential firing
action potential waveform shape ([3]; before vs during light illumination): no change in the shape of action potential waveforms
effect of light on action potential firing ([3]; ferricyanide increased from 100 to 200 μM): further suppressed action potential firing
light-triggered secretion (amperometric spikes) (mouse chromaffin cells; 2 μM RubpyC17, 488 nm): exhibited numerous amperometric current spikes
cells with increased secretion during light illumination (mouse chromaffin cells; 15 of 18 RubpyC17-loaded cells): 83%
increase in secretion during light illumination (mouse chromaffin cells; responding cells): at least 100 fold
time cell morphology preserved (HEK293T cells [4]; 10 μM RubpyC17): at least 10 minutes
incorporation into plasma membrane (membrane-localized luminescence) (HEK293T cells [4]; [5]): rapidly and stably incorporates into mammalian cell membranes
membrane luminescence after removal from bath solution (HEK293T cells [4]; [6]): still observed
